We go through 13 molecules from US8168232B2, “Formulations and methods of using nitric oxide mimetics in cancer treatment” (priority 2000, dated 2012).

Where a name gives a salt, the structure may show the parent alone.

For assay [1] the following is noted: concentrations up to 500 μM; cited from earlier work.
For assay [2], the system named is MDA-MB-231 breast carcinoma spheroids. Description: Clonogenic survival of MDA-MB-231 spheroids after doxorubicin. Type of assay: cell-based, human. Here is the method: Following initial cell plating, spheroids formed for 24, 48, 72, 96 or 120 h. At each time point, spheroids were exposed to 200 μM of doxorubicin, then disaggregated and plated for assessment of colony formation (survival).
Spheroids were allowed to form for 72 h. DETA/NO was applied for the final 24 h of spheroid formation. Spheroids were then exposed to doxorubicin for 1 h, prior to disaggregation and plating for assessment of survival by clonogenic assay.
Using human MDA-MB-231 breast carcinoma cells in clonogenic assays, survival was determined following doxorubicin exposure and NO mimetic administration to both monolayer and spheroid cultures.

In assay [3] the test system is hypoxia-inducible factor-1. Conditions: hypoxically cultured Hep3B cells; read-out: IC50 for suppression of the adaptive cellular response controlled by hypoxia-inducible factor-1; cited from earlier work.
In another assay the test system is uPAR mRNA. Put plainly: Northern blot analysis of uPAR mRNA in MDA-MB-231 breast carcinoma cells. Type of assay: cell-based, human.
The test system of assay [4] is MDA-MB-231 breast carcinoma cells. Put plainly: In vitro Matrigel invasion assay, MDA-MB-231. In kind it is cell-based, human. The method, then:
The chambers consist of cell culture inserts, 6.5 mm in diameter and with a 8 μm pore size membrane. Each membrane was coated with 100 μL of a 1 mg/mL solution of Matrigel diluted in cold serum-free culture medium (EX-CELL 300), and allowed to dry in a laminar flow cabinet for approximately 12 hours. The Matrigel was then rehydrated by incubating it with 100 μL of serum-free medium for approximately 1 hour. After rehydration, cell suspensions containing 5.0×10^4 or 1.0×10^5 cells in 100 μL of medium, containing both serum and the nitric oxide treatments, were added to each well. Culture medium containing serum and the respective nitric oxide treatment were then added to each insert. The cells were incubated for 24 hours under either hypoxic (1% O2) or control (20% O2) conditions. Following incubation, the non-invading cells were removed from the upper surface of the membrane by wiping with a cotton swab. The cells on the lower surface of the membrane were fixed for 10 minutes with Carnoy's fixative (25% acetic acid, 75% methanol), and then stained for approximately 3 hours with a 1% toluidine blue, 1% sodium borate solution. Following a rinse in phosphate-buffered saline (PBS), the membrane was removed from the insert housing with a small scalpel blade, mounted onto a microscope slide and coverslipped. Invading cells were then viewed under the microscope at 40× magnification and counted. The invasion index for each treatment was calculated by dividing the number of invading cells by the number of cells which invaded under standard conditions. This value was then multiplied by 100 to obtain a percentage. The standard was given a value of 100% and the treatment values were converted to a percentage of the standard. The results were tested for statistical significance using either the Tukey test for pair-wise multiple comparison procedures or the Student-Newman-Keuls method for pair-wise multiple comparison procedures.
The chambers consisted of 6.5-mm inserts with 8-μm pore membranes (Corning Costar Corp., Cambridge, Mass.). Each membrane was coated with 100 μL of a 2.6 mg/mL solution of Matrigel (Collaborative Biochemical Products, Bedford, Mass.) diluted in cold serum-free medium (EX-CELL 300; JRH Biosciences, Lenexa, Kans.), and allowed to dry in a laminar flow cabinet for approximately 12 hours. The Matrigel was then rehydrated with 100 μL of serum-free medium for approximately 1 hour. […] Invading cells were then viewed under the microscope at 40× magnification and counted. The invasion index for each treatment was calculated by dividing the number of invading cells by the number of cells that invaded under standard (20% oxygen) conditions. Invasion indices were expressed as percentages of control (20% oxygen) values. […]

A further assay relates to uPAR protein. Put plainly: Western blot analysis of uPAR protein in MDA-MB-231 breast carcinoma cells. In kind it is cell-based, human. Here is the method: Following incubations, the cells were lysed using a buffer containing 40 mM HEPES pH 7.2, 100 mM NaCl, 20% glycerol, 0.1 mM EDTA pH 8.0, 0.2% Triton X-100, 1 mM DTT, and 2 mM PMSF. The lysates were then subjected to homogenization, DNA shearing (10 times with a 25⅝-gauge needle), boiling (5 minutes) and centrifugation (15 minutes, 14000 g). The supernatant was collected and stored at −80° C. until use. The samples were subjected to SDS-polyacrylamide gel electrophoresis (PAGE) and the resolved proteins were transferred to an Immobilon-P membrane using a wet transfer apparatus (Bio-Rad Laboratories, Mississauga, ON). The membranes were blocked overnight at 4° C. in a solution containing 1% PBS, and 0.01% Tween20 (PBS-T) as well as 5% casein. The blots were subsequently incubated for 1.5 hours with the monoclonal anti-uPAR antibody [MoAb 3937], followed by six 5 minute washes with PBS-T. The membranes were then incubated with a horseradish peroxidase labeled goat anti-mouse IgG secondary antibody for 1.5 hours. Following six additional 5 minute washes with PBS-T, the antigen was detected by enhanced chemiluminescence and the blots were exposed onto Dupont Reflection NEF film.
Following incubation, the cells were lysed using a buffer containing 40 mM HEPES pH 7.2, 100 mM NaCl, 20% glycerol, 0.1 mM EDTA pH 8.0, 0.2% Triton X-100, 1 mM dithiothreitol (DTT), and 2 mM phenylmethyl sulfonyl fluoride (PMSF). The lysates were then subjected to homogenization, DNA shearing (10 times with a 25⅝-gauge needle), boiling (5 minutes) and centrifugation (15 minutes at 14,000×g). The supernatant was collected and stored at −80° C. until use. The samples were subjected to SDS-polyacrylamide gel electrophoresis (PAGE) and the resolved proteins were transferred to an Immobilon-P membrane (Millipore Corp., Bedford, Mass.) using a wet transfer apparatus (BioRad Laboratories, Mississauga, ON). The membranes were blocked overnight at 4° C. in a solution containing 1% PBS, and 0.01% Tween 20 (PBS-T) as well as 5% dry milk powder. The blots were subsequently incubated for 1.5 hours with the monoclonal anti-uPAR (MoAb 3937; American Diagnostica Inc., Greenwich, Conn.), or a polyclonal soluble guanylate cyclase (sGC) antiserum (Cayman Chemical, Ann Arbor, Mich.) followed by six 5-minute washes with PBS-T. Subsequently, the uPAR membranes were incubated for 1 hour with a horseradish peroxidase labelled goat anti-mouse IgG secondary antibody (Bio-Rad, Hercules, Calif.) and the sGC membranes were incubated for 1 hour with a goat anti-rabbit IgG horseradish peroxidase conjugate (VECTOR Laboratories Inc., Burlingame, Calif.). Following six additional 5-minute washes with PBS-T, the antigen was detected by enhanced chemiluminescence (Amersham Canada Inc., Mississauga, ON) and the blots were exposed onto Dupont Reflection NEF film.
On the technique in general: Immunoblotting shows a protein as a band on a membrane.

The test system of assay [5] is Bl6F10 metastatic melanoma cells. Description: In vivo experimental metastasis (lung colonization) model. The arrangement: species or system C57BL6 mice. As to conditions: cells cultured in 1% O2 with 8-Br-cGMP (1 μM). Here is the method: C57BL6 mice were injected i.v. (tail vein) with a bolus of 5×10^4-10^5 Bl6F10 metastatic melanoma cells. Immediately after the tail vein injection, mice were randomly divided into groups of 15 and mice in each group were placed in plexiglass chambers (approximately 3 L) which were continuously flushed with gas mixtures of 20% O2:balance N2 and 10% O2:balance N2, respectively. […] After a 24 hour exposure to an atmosphere of either 20% O2 or 10% O2, mice were removed from the chambers and placed in regular cages kept at room air. Thirteen days later, mice were sacrificed by cervical dislocation, and lungs were removed and fixed in Bouin's fixative (Sigma). Metastatic nodules (many of which appeared black due to the presence of melanin) on the surface of the lungs were counted visually under a dissecting microscope. Data were expressed as the number of lung nodules per 10^4 cells injected and were analyzed using statistical tests for non-parametric values.
(§1) Cells were then removed from plates with trypsin and 5×10^4 cells were injected i.v. (tail vein) into C57BL6 female mice. Some of the cells treated in vitro were plated onto tissue culture dishes to determine colony-forming ability using the protocol described below in the Section I.J.
(§2) Following harvesting from culture plates, 5×10^4 cells were injected intravenously (tail vein injections) into 5-7 week old C57Bl/6 female mice. Cells were also plated in tissue culture plates to determine the effect of culture conditions on in vitro colony forming ability. Fourteen days after intravenous inoculation, mice were sacrificed and their lungs were removed and fixed in Bouin's fixative. Both melanotic and amelanotic metastatic colonies were counted under a dissecting microscope. Data were expressed as the number of lung nodules per 5×10^4 viable cells injected (as determined by in vitro colony-forming ability) and were analyzed using statistical tests for non-parametric values.

In assay [6] the test system is Bl6F10 mouse melanoma cells. Description: In vitro colony-forming ability of treated Bl6F10 melanoma cells. As to conditions: 8-Br-cGMP treatment. In kind it is cell-based. Here is the method: as §1, §2
The mark [7] stands for this setting: 8-Br-cGMP 0.1 μM-10 μM, 24 hours, dose-dependent.
Where [8] appears, read: 8-Br-cGMP 10^−3-10^−7 M, 0.5% O2 or DFO 100 μM.

For the molecule `CCCN(CCCN)N(O)N=O` [3-(n-propylamino)propylamine bis(nitric oxide) adduct], in assay [1], the cell viability result is listed as “did not significantly affect cell viability”.
With `CC(C)N[N+]([O-])=N[O-].[Na+]` [isopropylamine-bis(nitric oxide) adduct sodium salt], the cell viability entry in assay [1] is “did not significantly affect cell viability”.
`NCCN(CCN)/[N+]([O-])=N/O` [DETA, Diethylenetriamine/nitric oxide adduct]: the “attenuation of resistance to 200 μM doxorubicin associated with 3D culture” value in assay [2] was 90%. In addition, the “survival of control (doxorubicin-untreated) cells” value in assay [2] (DETA 0.1 mM and 2 μM, GTN 0.1 nM and 1 μM) is on record as “did not affect the survival”.
For orientation: IC50 means the midpoint of a concentration-inhibition curve. On to `N[C@@H](CCC(=O)N[C@@H](CSN=O)C(=O)NCC(=O)O)C(=O)O` [S-nitroso-L-glutathione], for which the IC50 in assay [3] was 211 µM.
With `O=NN(O)S(=O)(=O)O` [N-nitrosohydroxylamine-N-sulfonate], in assay [1], the cell viability entry is reported as “did not significantly affect cell viability”.
`N=c1c[n+](N2CCOCC2)[n-]o1` [3-morpholinosydnonimine]: the IC50 in assay [3] is 490 µM.
Consider `CCN(CC)[N+]([O-])=NO` [diethylamine-bis(nitric oxide) adduct sodium salt], for which the cell viability entry in assay [1] is “did not significantly affect cell viability”.
With `CC(=O)N(O)CCCCCNC(=O)CCC(=O)N(O)CCCCCNC(=O)CCC(=O)N(O)CCCCCN.CS(=O)(=O)O` [DFO, Desferoxamine mesylate], the “increase in uPAR mRNA levels” value in the assay on uPAR mRNA (cells cultured in the presence of DFO) amounted to 4 fold.
sodium trioxodinitrate (II) monohydrate: the cell viability result in assay [1] is given as “did not significantly affect cell viability”.
Take `O=S(=O)(NCCNC/C=C/c1ccc(Br)cc1)c1cccc2cnccc12` [H-89]: the “effect of forskolin on uPAR expression” value with uPAR mRNA (H-89 1 μM with forskolin 10 μM) was “prevented”. For the same molecule, the uPAR expression result in the assay with uPAR mRNA (H-89 1 μM, independent of oxygenation) is “up-regulation”. The invasiveness entry in assay [4] (H-89 1 μM alone) is given as “independently enhanced invasiveness”. The “effect of forskolin on invasion” value in assay [4] (H-89 1 μM with forskolin 10 μM) was “prevented”.
For the molecule `COC(=O)[C@@]1(OC)C[C@H]2O[C@]1(C)n1c3ccccc3c3c4c(c5c6ccccc6n2c5c31)C(=O)N(C)C4` [KT5823], the “effect on the effects of 8-Br-cGMP on uPAR expression” value with uPAR mRNA (KT5823 10 μM) is “significantly blunted”. Further, the “increase in uPAR mRNA expression” value in the assay with uPAR mRNA (KT5823 10 μM, 6 hours, 20% O2) worked out at 1.8 fold. For the same molecule, in the assay with uPAR protein (KT5823 10 μM, 6 hours, 20% O2), the “increase in uPAR protein expression” value was 1.8 fold.
Consider `O=c1onc2cnc3ccccc3n12` [ODQ, 1H-[1,2,4]Oxadiazolo-[4,3-a]Quinoxalin-1-One], for which the “effect on ability of GTN (10^−6 M) to abrogate hypoxic induction of uPAR, mRNA level” value in the assay on uPAR mRNA (ODQ 0.5 μM) is listed as “substantially prevented”. In addition, the “increase in uPAR mRNA levels” value with uPAR mRNA (ODQ 0.5 μM, 24 hours, vs 20% O2 alone) is on record as 2.7 fold. The “effect on ability of GTN (10^−6 M) to abrogate hypoxic induction of uPAR, protein level” value with uPAR protein (ODQ 0.5 μM) is given as “substantially prevented”.
As to `Nc1nc2c(nc(Br)n2[C@@H]2O[C@@H]3COP(=O)(O)O[C@H]3[C@H]2O)c(=O)[nH]1` [8-Br-cGMP, 8-bromoguanosine 3′:5′-cyclic monophosphate], the “reduction of hypoxic upregulation of uPAR mRNA expression” value in the assay on uPAR mRNA (setting [7]) is given as “up to 100%”. The “effect on hypoxia- and DFO-induced uPAR expression, mRNA level” value in the assay with uPAR mRNA (setting [8]) is recorded as “significantly abrogated”. For the same molecule, in the assay on uPAR mRNA (8-Br-cGMP (1 mM) as printed), the “DFO-induced upregulation of uPAR mRNA expression” value is listed as “complete inhibition”. Further, in the assay on uPAR protein (setting [7]), the “reduction of hypoxic upregulation of uPAR protein expression” value is given as “up to 100%”. Besides, the “effect on hypoxia- and DFO-induced uPAR expression, protein level” value in the assay with uPAR protein (setting [8]) is on record as “significantly abrogated”. Besides, the “effect of hypoxia on invasiveness” value in assay [4] (0.1 μM-1 mM, 24-h, 0.5% O2) is “completely inhibited”. In addition, in assay [4] (8-Br-cGMP), the hypoxia-associated invasion result is reported as “significantly inhibit”. Moreover, the “hypoxic induction of metastatic lung nodules” value in assay [5] is “completely abrogated”. In addition, the “viability of the cells (colony formation assay)” value in assay [6] was “did not affect the viability”.
